From patent publication EP3454861B1, “BENZOXAZINE OR QUINAZOLINE DERIVATIVES FOR USE IN THE TREATMENT OF ALZHEIMER'S DISEASE” (Biocodex, priority 2016, dated 2017)

System: neurones corticaux
Assay: Oxidative stress (MetO-positive neurons) in cortical neurons after Aβ1-42
Assay type: cell-based, rats
Details: Rattus norvegicus, Cortical neurone, Aβ1-42 1,25 µM, 4 h (Aβ1-42 alone 136.98%), read-out: nombre de neurones positifs à MetO
Experimental: Des neurones corticaux de rats sont mis en culture comme dans la méthode décrite par Singer (1999) J. Neurosci. 19:2455-2463. Des rats femelles enceintes de 15 jours sont tuées par dislocation des cervicales (Rats Wistar, Janvier) et le fœtus est retiré de l'utérus. Les cortex sont prélevés et placés dans un milieu glacé de Leibovitz (L15, Panbiotech, Réf : P04-27055, lot : 9310614) contenant 2% de pénicilline (10 000 U/ml) et de streptomycine (10 mg/ml) (PS, Panbiotec, Réf : P06-07100, lot : 48101114) et 1% de sérum-albumine bovine (BSA, Panbiotech, Réf : P06-1391100, lot : H140603). Les cortex sont dissociés par trypsination (0,05% Panbiotech, Réf : P10-023100, lot : 5890314) pendant 20 minutes à 37°C. La réaction est stoppée par addition d'un milieu Eagle modifié de Dulbecco (DMEM, Panbiotech, réf P04-03600, lot : 9670913) contenant de la DNase I grade Il (0,1 mg/ml Panbiotech, Réf : P60-37780100, lot : H140508) et 10 % de sérum de veau fœtal (FCS, Invitrogen, Réf : 10270 à 098, lot : 41Q4120K). Les cellules sont dissociées mécaniquement par 3 passages à travers une pipette de 10 ml. Les cellules sont ensuite centrifugées à 515 g pendant 10 minutes à 4°C. […]

CCNC1=Nc2ccc(Cl)cc2C(C)(c2ccccc2)O1 (centres unmarked) [Etifoxine, chlorhydratede 6-chloro-2-éthylamino-4-méthyl-4-phényl-4H-[3,1]benzoxazine]
activity at 3 µM (étifoxine 3 µM): 108% | activity at 10 µM (étifoxine 10 µM): 103%
